Where two headings read alike, the source gives them in different places.

The test system of one data set is BREAST cancer cell lines. Particulars: log of concentration causing 50% lethality; arithmetic average of six to eight breast cell lines.
Data set [1] relates to OVARIAN cancer cell lines. Particulars: log of concentration causing 50% lethality; arithmetic average of six to eight ovarian cell lines.
Procedure: (§1) For each histologic cancer type, the average −log LC50 value was determined from an NCI panel consisting of six to eight human cancer cell lines. {Paull, D. K.; Shoemaker, R. H.; Hodes, L.; Monks, A.; Scudiero, D. A.; Rubinstein, L.; Plowman, J.; Boyd, M. R. Display and Analysis of Differential Activity of Drugs Against Human Tumor Cell Lines: Development of Mean Graph and COMPARE Algorithm.
In data set [2] the test system is PROSTATE cancer cell lines. Particulars: log of concentration causing 50% lethality; arithmetic average of six to eight prostate cell lines.
Procedure: as §1
The test system of a further data set is CNS cancer cell lines. Particulars: log of concentration causing 50% lethality; arithmetic average of six to eight CNS cell lines.
Data set [3] deals with MELANOMA cancer cell lines. Particulars: log of concentration causing 50% lethality; arithmetic average of six to eight melanoma cell lines.
Data set [4] concerns NSC LUNG cancer cell lines. Particulars: log of concentration causing 50% lethality; arithmetic average of six to eight NSC lung cell lines.
Data set [5] relates to LEUKEMIA cancer cell lines. Particulars: log of concentration causing 50% lethality; arithmetic average of six to eight leukemia cell lines.
Another data set deals with COLON cancer cell lines. Particulars: log of concentration causing 50% lethality; arithmetic average of six to eight colon cell lines.
In the next data set the test system is RENAL cancer cell lines. Particulars: log of concentration causing 50% lethality; arithmetic average of six to eight renal cell lines.
A further data set deals with B-16 melanoma. Particulars: for area under the tumor-growth curve (AUC): control 11.39; for in vivo activity (effect on tumor mass), in words: B16 syngraft, dosing on days 1, 5, and 9 after implantation of 10^5 cells.
The next data set relates to 600 bp calf thymus DNA. Kind of data set: Alkylation of DNA by reduced indoloquinones. Particulars: FIG. 2.
Another data set deals with T1, rat liver DT-diaphorase (Rattus norvegicus, UniProt P05982).
T1 sequence (P05982 2-274 limits assumed): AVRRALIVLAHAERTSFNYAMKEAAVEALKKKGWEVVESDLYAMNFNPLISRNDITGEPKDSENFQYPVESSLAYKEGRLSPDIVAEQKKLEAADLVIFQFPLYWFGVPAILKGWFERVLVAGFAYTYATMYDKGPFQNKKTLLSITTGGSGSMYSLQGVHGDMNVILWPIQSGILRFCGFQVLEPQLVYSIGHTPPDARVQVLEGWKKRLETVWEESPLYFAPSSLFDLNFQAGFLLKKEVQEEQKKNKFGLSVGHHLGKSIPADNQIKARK
Particulars: FIG. 2.

Setting [6] is: 1 mg/Kg IP on days 1, 5, and 9 after tumor implantation.
Where [7] appears, read: 3 mg/Kg IP on days 1, 5, and 9 after tumor implantation.

Procedure for B-16 melanoma: This compound was studied at three dose levels: 2, 3 and 5 mg/Kg IP on days 1, 5, and 9 after tumor implantation into the front flank muscle. Shown in the plot are the AUC values as a function of time for each dosage. The control was obtained with drug-free animals.
Procedure for BREAST cancer cell lines: as §1
Procedure for RENAL cancer cell lines: as §1

`CC1=C(N2CC2)C(=O)c2[nH]c3c(c2C1=O)CCC3O` (centres unmarked) [Cyclopent[b]indole 3b, 6-Aziridinyl-1,4-Dihydro-3-hydroxy-7-methyl-(2H) cyclopent[b]indole-5,8-dione]: the “Log LC50” value in the data set with BREAST cancer cell lines is listed as −4.47 moles/liter; in [1], −4.05 moles/liter; in data set [2] it was −4.5 moles/liter; with CNS cancer cell lines it was −4.54 moles/liter; in data set [3], −4.85 moles/liter; in data set [4], −4.22 moles/liter. The “Log LC50” value is −4.06 moles/liter in [5], −4.45 moles/liter in the data set with COLON cancer cell lines and −4.73 moles/liter with RENAL cancer cell lines.

`CC(=O)OC1CCc2c1[nH]c1c2C(=O)C(C)=C(N2CC2)C1=O` (centres unmarked) [Cyclopent[b]indole 3c, 3-Acetoxy-6-aziridinyl-1,4-dihydro-7-methyl-(2H) cyclopent [b]indole-5,8-dione]: the “Log LC50” value is on record as −4.53 moles/liter with BREAST cancer cell lines; −4.366 moles/liter in [1]; −4.63 moles/liter in data set [2]; −4.7 moles/liter in the data set on CNS cancer cell lines; −4.99 moles/liter in data set [3]; −4.65 moles/liter in [4]. In addition, the results for the “Log LC50” value (in data set [5]; in the data set with COLON cancer cell lines; in the data set with RENAL cancer cell lines) were −4.3 moles/liter, −4.85 moles/liter and −4.72 moles/liter, respectively. The results for the “area under the tumor-growth curve (AUC)” value in the data set on B-16 melanoma (setting [6]) and in the data set on B-16 melanoma (setting [7]) were 6.67 and 6.92, respectively. In the data set with B-16 melanoma, the “in vivo activity (effect on tumor mass), in words” value (from here on “in vivo activity”) is “reduce the tumor mass substantially”. Besides, in the data set with 600 bp calf thymus DNA, the “% reductive alkylation of DNA, in words” value was “highest % alkylation of DNA”.

As for `COC1CCc2c1[nH]c1c2C(=O)C(C)=C(N2CC2)C1=O` (centres unmarked) [Cyclopent[b]indole 3d, 6-Aziridinyl-1,4-dihydro-3-methoxy-7-methyl-(2H) cyclopent[b]indole-5,8-dione], the “Log LC50” value in the data set with BREAST cancer cell lines was −4.33 moles/liter; in data set [1], more than −4 moles/liter; in data set [2], −4.46 moles/liter; in the data set on CNS cancer cell lines it was −4.17 moles/liter; in data set [3], −4.92 moles/liter; in data set [4] it was −4.2 moles/liter. Also, the “Log LC50” value in data set [5] is recorded as −4.06 moles/liter; in the data set on COLON cancer cell lines, −4.318 moles/liter; in the data set on RENAL cancer cell lines it was −4.58 moles/liter.

Turning to `CC1=C(N2CC2)C(=O)c2[nH]c3c(c2C1=O)CCC3=O` [Cyclopent[b]indole 3e, 6-Aziridinyl-1,4-dihydro-7-methyl-(2H) cyclopent [b]indole-3,5,8-trione], the “Log LC50” value in the data set with BREAST cancer cell lines is given as −4.9 moles/liter; in data set [1], −4.86 moles/liter; in [2], −4.8 moles/liter; in the data set with CNS cancer cell lines, −5.13 moles/liter; in data set [3], −5.99 moles/liter; in data set [4] it was −5.37 moles/liter. For the same compound, the “Log LC50” value is reported as more than −4 moles/liter in [5], −5.44 moles/liter in the data set with COLON cancer cell lines and −5.34 moles/liter in the data set on RENAL cancer cell lines. Moreover, the “in vivo activity” value in the data set with B-16 melanoma is “completely inactive”.

For `CC(=O)OC1CCc2c3c(n(C(C)=O)c21)C(=O)C(N1CC1)=C(C)C3=O` (centres unmarked) [Cyclopent[b]indole 14, 3-Acetoxy-4-acetyl-6-aziridinyl-1,4-Dihydro-7-methyl-(2H) cyclopent[b]indole-5,8-dione], the “Log LC50” value in the data set with BREAST cancer cell lines was −4.5 moles/liter; in [1] it was −4.18 moles/liter; in [2] it was −4.71 moles/liter; in the data set on CNS cancer cell lines it was −4.75 moles/liter; in data set [3], −5.06 moles/liter; in [4], −4.42 moles/liter. In addition, the entries for the “Log LC50” value (in data set [5]; in the data set with COLON cancer cell lines; in the data set with RENAL cancer cell lines) were more than −4 moles/liter, −4.77 moles/liter and −4.78 moles/liter, respectively. Besides, on rat liver DT-diaphorase, the “DT-diaphorase substrate activity, in words” value is “excellent substrate for DT-diaphorase”. In addition, in the data set with B-16 melanoma, the “in vivo activity” value is recorded as “enhances antitumor activity greatly”. In addition, the “% reductive alkylation of DNA, in words” value in the data set on 600 bp calf thymus DNA is listed as “readily alkylates DNA”.

For the compound `CC1=C(N2CC2)C(=O)c2c([nH]c(C)c2C)C1=O` [Indole 1a, 5-Aziridinyl-2,3,6-trimethylindole-4,7-dione], the “Log LC50” value in the data set with BREAST cancer cell lines is more than −4 moles/liter; in data set [1] it was more than −4 moles/liter; in [2] it was more than −4 moles/liter; with CNS cancer cell lines, more than −4 moles/liter; in data set [3], −4.42 moles/liter; in data set [4] it was −4.29 moles/liter. The “Log LC50” value (in data set [5]; in the data set with COLON cancer cell lines; in the data set on RENAL cancer cell lines) was more than −4 moles/liter each time.

In the case of `CC1=C(N2CC2)C(=O)c2c([nH]c(CO)c2C)C1=O` [Indole 1b, 5-Aziridinyl-2-(hydroxymethyl)-3,6-dimethylindole-4,7-dione], the “Log LC50” value with BREAST cancer cell lines is reported as −4.56 moles/liter; in data set [1], more than −4 moles/liter; in [2] it was −4.78 moles/liter; with CNS cancer cell lines, more than −4 moles/liter; in data set [3], −5.39 moles/liter; in data set [4], −4.37 moles/liter. The entries for the “Log LC50” value (in data set [5]; with COLON cancer cell lines; with RENAL cancer cell lines) were more than −4 moles/liter, −4.32 moles/liter and −4.53 moles/liter, respectively.

Regarding `CC(=O)OCc1[nH]c2c(c1C)C(=O)C(N1CC1)=C(C)C2=O` [Indole 1c, 2-(Acetoxymethyl)-5-aziridinyl-3,6-dimethylindole-4,7-dione], the “Log LC50” value with BREAST cancer cell lines was −4.57 moles/liter; in data set [1], −4.46 moles/liter; in data set [2], −5.01 moles/liter; in the data set on CNS cancer cell lines, −4.83 moles/liter; in data set [3] it was −5.64 moles/liter; in [4], −4.48 moles/liter. The “Log LC50” value in [5] is more than −4 moles/liter; with COLON cancer cell lines, −5.08 moles/liter; with RENAL cancer cell lines, −4.54 moles/liter. The “area under the tumor-growth curve (AUC)” value with B-16 melanoma (setting [6]) turned out to be 10.94; with B-16 melanoma (setting [7]) it was 15.82. The “in vivo activity” value with B-16 melanoma is reported as “decreased tumor mass only at the 3 mg/kg dose”.

Take `CC1=C(N2CC2)C(=O)c2[nH]c(CO)c(C)c2C1=O` [Indole 2b, 6-Aziridinyl-2-(hydroxymethyl)-3,5-dimethylindole-4,7-dione]: the “Log LC50” value in the data set on BREAST cancer cell lines was −4.05 moles/liter; in data set [1], more than −4 moles/liter; in data set [2], −4.2 moles/liter; with CNS cancer cell lines, −4.05 moles/liter; in data set [3] it was −4.4 moles/liter; in data set [4], −4.1 moles/liter. Further, the “Log LC50” value in data set [5] is more than −4 moles/liter; in the data set with COLON cancer cell lines, −4.2 moles/liter; in the data set on RENAL cancer cell lines, −4.23 moles/liter.

As for `CC(=O)OCc1[nH]c2c(c1C)C(=O)C(C)=C(N1CC1)C2=O` [Indole 2c, 2-(Acetoxymethyl)-6-aziridinyl-3,5-dimethylindole-4,7-dione], the “Log LC50” value in the data set with BREAST cancer cell lines is more than −4 moles/liter; in data set [1], more than −4 moles/liter; in [2], more than −4 moles/liter; in the data set with CNS cancer cell lines it was more than −4 moles/liter; in data set [3] it was −4.15 moles/liter; in [4] it was −4.1 moles/liter. The “Log LC50” value in [5] is given as more than −4 moles/liter; with COLON cancer cell lines, more than −4 moles/liter; in the data set with RENAL cancer cell lines it was −4.14 moles/liter. For the same compound, the “area under the tumor-growth curve (AUC)” value in the data set with B-16 melanoma (setting [6]) was found to be 13.83; in the data set with B-16 melanoma (setting [7]), 8.59. In addition, the “in vivo activity” value in the data set on B-16 melanoma was “inactive at both concentrations”.
